Test results reported in patent US20260347310A1, “PHENALKYLAMINES AND METHODS OF MAKING AND USING THE SAME” (GILGAMESH PHARMACEUTICALS, INC., priority 2022, published 2026).

Key:
[1] = Metabolic stability in human liver microsomes (HLM); assay type: in vitro ADME; conditions: for stability in HLM (in words): 1 μM, 0.50 mg protein/mL, 1 mM NADPH, 37 °C, 60 min; for half-life at 1 µM / microsomal CLint at 1 µM: human liver microsomes 0.50 mg/mL, NADPH 1 mM, test compound 1 μM, 37° C., pH 7.4, 60 min
Experimental: (§1) Test Compounds. Compounds were prepared as described above.
HLM Stability. Pooled HLM from adult male and female donors (Corning 452117) were used. Microsomal incubations were carried out in multi-well plates. Liver microsomal incubation medium consisted of PBS (100 mM, pH 7.4), MgCl2 (1 mM), and NADPH (1 mM), with 0.50 mg of liver microsomal protein per mL. Control incubations were performed by replacing the NADPH-cofactor system with PBS. Test compounds (1 μM, final solvent concentration 1.0%) were incubated with microsomes at 37° C. with constant shaking. Six time points over 60 minutes were analyzed, with 60 μL aliquots of the reaction mixture being drawn at each time point. The reaction aliquots were stopped by adding 180 μL of cold (4° C.) acetonitrile containing 200 ng/mL tolbutamide and 200 ng/mL labetalol as internal standards (IS), followed by shaking for 10 minutes, and then protein sedimentation by centrifugation at 4,000 rpm for 20 minutes at 4° C. Supernatant samples (80 μL) were diluted with water (240 μL) and analyzed for parent compound remaining using a fit-for-purpose liquid chromatography-tandem mass spectrometry (LC-MS/MS) method.
Data Analysis. The elimination constant (kel), half-life (t1/2), and intrinsic clearance (CLint) were determined in a plot of […] versus time, using linear regression analysis.

5-HT2C receptor = biological target: T1, 5-HT2C receptor (Homo sapiens, UniProt P28335); experiment: FLIPR Ca2+ flux functional agonist assay at 5-HT2C; assay type: cell-based; parameters: expressed in transfected cells; conditions: for Emax: agonist activity, FLIPR Ca2+ flux, stably transfected cells, at max dose, read-out: 5-HT2C % Act @ Max Dose
T1 sequence (P28335 33-458): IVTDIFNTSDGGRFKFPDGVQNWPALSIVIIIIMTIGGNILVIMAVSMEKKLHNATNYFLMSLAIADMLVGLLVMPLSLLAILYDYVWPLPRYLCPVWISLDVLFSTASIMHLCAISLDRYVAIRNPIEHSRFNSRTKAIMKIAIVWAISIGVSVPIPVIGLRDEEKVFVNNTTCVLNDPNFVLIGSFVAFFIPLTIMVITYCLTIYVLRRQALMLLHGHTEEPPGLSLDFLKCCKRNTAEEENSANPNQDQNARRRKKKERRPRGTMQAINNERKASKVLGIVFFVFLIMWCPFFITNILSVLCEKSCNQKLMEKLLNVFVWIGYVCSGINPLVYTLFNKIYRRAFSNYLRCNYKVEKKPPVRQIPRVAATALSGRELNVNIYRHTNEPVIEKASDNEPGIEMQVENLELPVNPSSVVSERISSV
Experimental: Disclosed compounds were tested for agonist activity at several serotonin receptor subtypes (5-HT2A, […], and 5-HT2C) using Ca^2+ flux functional assays, with the results summarized in Table 9.
as §1
Functional Assays at 5-HT2C. Agonist activity at 5-HT2C was determined using a FLIPR Ca^2+ flux assay at Eurofins DiscoverX (Fremont, CA) according to their standard protocols. Briefly, stably transfected cells expressing the human 5-HT2C receptor were grown and plated in a 384-well plate and incubated at 37° C. and 5% CO2 overnight. Assays were performed in 1× Dye Loading Buffer consisting of 1× Dye, 1× Additive A, and 2.5 mM Probenecid in HBSS/20 mM Hepes. Probenecid was prepared fresh. Cells were loaded with dye prior to testing and incubated at 37° C. for 30-60 minutes. After dye loading, cells were removed from the incubator and 10 μL HBSS/20 mM Hepes was added. 3× vehicle was included in the assay buffer. Cells were incubated for 30 mins at room temperature in the dark to equilibrate plate temperature. Intermediate dilution of sample stocks was performed to generate 4× sample in assay buffer. Compound agonist activity was measured on a FLIPR Tetra (MDS). Calcium mobilization was monitored for 2 minutes and 10 μL 4× sample in HBSS/20 mM Hepes was added to the cells 5 seconds into the assay.

5-HT2B receptor = biological target: T2, 5-HT2B receptor (Homo sapiens, UniProt P41595); experiment: Radioligand binding at 5-HT2B ([3H]LSD)
T2 construct: expressed in transfected cells; host or cells: HEK293
T2 sequence (P41595 whole entry): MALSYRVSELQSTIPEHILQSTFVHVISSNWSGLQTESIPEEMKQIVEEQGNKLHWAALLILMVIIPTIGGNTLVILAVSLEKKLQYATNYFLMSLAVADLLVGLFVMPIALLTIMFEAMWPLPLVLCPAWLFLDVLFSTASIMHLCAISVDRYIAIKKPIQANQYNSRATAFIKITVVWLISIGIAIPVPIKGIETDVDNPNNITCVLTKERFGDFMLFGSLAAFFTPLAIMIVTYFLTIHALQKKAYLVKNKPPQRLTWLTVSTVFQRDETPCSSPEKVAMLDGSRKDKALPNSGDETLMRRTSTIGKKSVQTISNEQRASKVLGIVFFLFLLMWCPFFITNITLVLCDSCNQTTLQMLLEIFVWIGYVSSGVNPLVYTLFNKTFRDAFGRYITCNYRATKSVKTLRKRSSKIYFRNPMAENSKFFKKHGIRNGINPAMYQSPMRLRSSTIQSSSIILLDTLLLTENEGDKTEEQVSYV
Experimental: The binding affinities of disclosed compounds at the ketanserin binding site of the 5-HT2A receptor, the LSD binding site of the 5-HT2B receptor, and the mesulergine binding site of the 5-HT2C receptor were determined in radioligand binding experiments.
Method. The affinity of the test compounds for 5-HT2A, 5-HT2B, and 5-HT2C receptors was determined in radioligand binding experiments with [^3H]ketanserin, [^3H]LSD, and [^3H]mesulergine, respectively, by WuXi AppTec (Hong Kong) Limited, using methods adapted from the literature and under conditions described in Table 7.

SMILES: CCC(N)Cc1cc(OC)c(CCCCCC(F)(F)F)cc1OC (racemic) [Compound 2a, 1-(2,5-dimethoxy-4-(6,6,6-trifluorohexyl)phenyl)butan-2-amine]
- stability in HLM (in words) [1]: significantly higher stability compared to 1R and 1S
- half-life at 1 µM [1]: > 145 min
- microsomal CLint at 1 µM [1]: < 9.6 µL/min/mg

SMILES: CCCCCCc1cc(OC)c(C[C@H](N)CC)cc1OC [Compound 1R, (R)-1-(4-hexyl-2,5-dimethoxyphenyl)butan-2-amine]
- EC50 (5-HT2C receptor): 1190 nM
- fold more potent at 5-HT2C (5-HT2C receptor; 1R compared to 1S, Ca2+ flux): ~ 3 fold
- Emax (5-HT2C receptor): 104%
- Ki (5-HT2B receptor): 111 nM
- fold lower affinity at 5-HT2B (5-HT2B receptor; 1R compared to 1S): ~ 36 fold
- stability in HLM (in words) [1]: substantially more stable than 1S
- CLint and half-life in HLM (in words) ([1]; 1R versus 1S): lower CLint and longer half-life
- half-life at 1 µM [1]: 37.5 min
- microsomal CLint at 1 µM [1]: 37 µL/min/mg

SMILES: CCCCCCc1cc(OC)c(C[C@@H](N)CC)cc1OC [Compound 1S, (S)-1-(4-hexyl-2,5-dimethoxyphenyl)butan-2-amine]
- EC50 (5-HT2C receptor): 3130 nM
- Emax (5-HT2C receptor): 106%
- Ki (5-HT2B receptor): 3.1 nM
- half-life at 1 µM [1]: 19.7 min
- microsomal CLint at 1 µM [1]: 70.2 µL/min/mg
